Measurements from patent US6423730B1, “Method to control termites” (Dow AgroSciences LLC, priority 1999, dated 2002).

Legend:
Reticulitermes = assay: AWPA E1-97 treated southern yellow pine wood block termite test; format: in vivo; details: treated southern yellow pine wood blocks, four weeks
Procedure: Compounds of Formula I were evaluated using standard evaluation methodology as prescribed by the American Wood Preservers Association Standard AWPA E1-97, incorporated herein by reference, using a species of the destructive termite, Reticulitermes.
In this test replicate containers containing damp sand and southern yellow pine wood blocks treated with the compound are used. Termites are introduced into the test container and after four weeks the containers are disassembled and the wood blocks are evaluated for termite damage. Termite mortality is also evaluated.

Reticulitermes lalvipes = assay: Treated filter pad and pine wood chip petri dish termite kill test; format: in vivo; details: 8 days after treatment, 13° C.
Procedure: Subterranean worker termites, Reticulitermes lalvipes, were purchased from Carolina Biological Supply Co. The insects were stored with their shipping material, decayed wood chips and moist paper towels, in an unlit growth chamber at 13° C. for three days prior to start of the test. This delay was to acclimate the termites to the test conditions as well as to eliminate weak individuals.
The compounds tested, 100 mg each, were dissolved in 10 mL of pure ethanol (dehydrated, 200 proof) to provide a solution of 10,000 ppm. The solution was serial diluted by 10× to achieve dilutions of 1,000, 100, 10, and 1 ppm. A pure cellulose fiber filter pad was soaked with 1 mL of each test sample and placed into a Falcon petri dish (50×9 mm sterile polystyrene). In addition, a pine wood chip, approximately 12×12×4 mm was dipped into the test solution for 30 seconds and placed on the filter paper. Solvent from the treated filters and wood chips was then allowed to evaporate for 24 hours. The next day, five termites were placed on the filter pad and the upper lid of the petri plate was secured. Three replications were used for each treatment.
The termites in the petri dishes were returned to the growth chamber at 13° C. The humidity was high enough to allow for condensation on the upper plate surface, which provided water for the termites. The petri dishes were briefly removed from the chamber at 2, 4, and 8 days after treatment to count the number of live termites. Data was expressed as the percentage of control (kill) of termites.

| SMILES | Minimum Retention Preventing Termite Attack (Reticulitermes) [kg/m^3] | Control (% kill at 8 days) (Reticulitermes lalvipes; dose 1 ppm) [%] | Control (% kill at 8 days) (Reticulitermes lalvipes; dose 10 ppm) [%] | Control (% kill at 8 days) (Reticulitermes lalvipes; dose 100 ppm) [%] | Control (% kill at 8 days) (Reticulitermes lalvipes; dose 1,000 ppm) [%] | Control (% kill at 8 days) (Reticulitermes lalvipes; dose 10,000 ppm) [%] |
| --- | --- | --- | --- | --- | --- | --- |
| CCOP(=S)(OCC)Oc1nc(Cl)c(Cl)cc1Cl [Comparative, chlorpyrifos, reference compound] | >0.160 |  |  |  |  |  |
| O=C(Nc1cc(Cl)c(Cl)c(Cl)c1)c1sc(C(F)(F)F)nc1C(F)(F)F [Compound 4] |  | 77 | 47 | 33 | 73 | 100 |
| O=C(Nc1c(Br)cc(OC(F)(F)F)cc1Br)c1sc(C(F)(F)F)nc1C(F)(F)F [Compound 5] | 0.768 |  |  |  |  |  |
| O=C(Nc1ccc(Cl)c(Cl)c1Cl)c1sc(C(F)(F)F)nc1C(F)(F)F [Compound 6] |  | 33 | 27 | 53 | 100 | 100 |
| O=C(Nc1cc(Cl)c(Cl)cc1Cl)c1sc(C(F)(F)F)nc1C(F)(F)F [Compound 7] |  | 73 | 60 | 87 | 100 | 100 |
| O=C(Nc1ccc(Cl)cc1Cl)c1sc(C(F)(F)F)nc1C(F)(F)F [Compound 8] |  | 7 | 0 | 0 | 20 | 100 |
| O=C(Nc1cc(Cl)ccc1Cl)c1sc(C(F)(F)F)nc1C(F)(F)F [Compound 9] |  | 27 | 40 | 20 | 53 | 100 |
| O=C(Nc1c(Cl)cccc1Cl)c1sc(C(F)(F)F)nc1C(F)(F)F [Compound 10] |  | 7 | 0 | 0 | 67 | 73 |
| O=C(Nc1cc(Cl)cc(Cl)c1)c1sc(C(F)(F)F)nc1C(F)(F)F [Compound 11] |  | 0 | 7 | 13 | 13 | 67 |
